According to US5371077A, “Side chain derivatized 15-oxygenated sterols, methods of using them and a process for preparing them” (William Marsh Rice University, priority 1992, dated 1994):

Tests used:
[1] = tested on: HMG-CoA reductase; test: Effects of sterols on HMG-CoA reductase activity in CHO-K1 cells; assay type: cell-based; conditions: 4 hours
Procedure: Effects of side chain derivatized 15-oxygenated sterols on HMG-CoA reductase activity in CHO-K1 cells
The effects of the sterols on HMG-CoA reductase activity were determined on CHO-K1 cells. The cells were obtained from the American Type Culture Collection (Rockville, Md.). (3RS)-[3-^14 C]HMG-CoA (56 mCi per mmol) and (3RS)-[2-^3 H]mevalonolactone (176 mCi per mmol) were purchased from Amersham Corporation (Arlington Heights, Ill.). Lux tissue culture plasticware was from Miles Scientific (Elkhart, Ind.). Trypsin was obtained from Gibco Laboratories (Grand Island, N.Y.) and Ham's F12 medium, Proc. Natl. Acad. Sci. U.S.A., 53, 288-293 (1965), and phosphate buffered saline (PBS; KCl, 2.7 mM; KH2 PO4, 1.2 mM; NaCl, 137 mM; and Na2 HPO4, 8.1 mM) were obtained from Irvine Scientific (Irvine, Calif.). Fetal calf serum was purchased from Whittaker M.A. Bioproducts (Elkhart, Ind.).
For cell culture experiments, the sterols and C24 acid were added as ethanolic solutions to Ham's F12 medium supplemented with 5% delipidated fetal calf serum (lipid-deficient medium) and allowed to equilibrate for at least 6 hours at room temperature prior to storage at 4° C. Protein in detergent-solubilized extracts of cultured cells was assayed by the Peterson modification, Anal. Biochem., 83, 346-356, of the method of Lowry et al., J. Biol. Chem, 193, 265-275.
The CHO-K1 cells were maintained in Ham's F12 medium supplemented with 5% fetal calf serum (lipid-rich medium) in a humidified atmosphere of 5% CO2 -95% air at 37° C. Each experiment was initiated by inoculating […] cells into 100-mm dishes containing the lipid-rich medium (10 ml), followed by incubating for 48 hours. The medium was aspirated and, after rinsing the plates with PBS (10 ml), the cells were incubated for 18 hours in lipid-deficient media (10 ml). The cells were then incubated with fresh lipid-deficient media (10 ml) containing various concentrations of the 15-oxygenated sterols (from 0.0 μM to 2.5 μM) for 4 hours. Cells were harvested by scraping, and detergent-solubilized cell preparations were obtained for assay of HMG-CoA reductase activity using the method of Brown, Dana and Goldstein, J. Biol. Chem, 249, 789-796. Replicate assays (n=3) were carried out as described by Pinkerton et al., J. Biol. Chem, 257, 1929-1936, except that the specific activity of (3RS)-[3-^14 C]HMG-CoA was 20,000 dpm per nmol.

[2] = Effects of dietary administration of F7-15-ketosterol to rats: serum sterols; assay type: in vivo, rats (Sprague-Dawley, male); conditions: rat
Description: Effects of dietary administration of side chain derivatized 15-oxygenated sterols to rats
Male rats (100-140 g) of the Sprague-Dawley strain were obtained from Harlan Sprague-Dawley (Houston, Tex.) and housed in pairs for 6 days on a light (6:00 AM-6:00 PM)--dark cycle and fed a ground basal diet (Purina Formulab 5008) and water ad libitum. The animals were then divided into groups of 8 animals each, such that the mean values of serum cholesterol and body weight were approximately the same. The animals were then housed individually and were provided diet and water ad libitum. Blood for serum sterol concentrations was obtained at ^~ 8:00 AM from tail vein on days 5 and 9.
The experiment involved administration of 3β-hydroxy-25,26,26,26,27,27,27-heptafluoro-5α-cholest-8(14)-en-15-one (F7 -15-ketosterol) in basal diet as utilized previously in Schroepfer et al., Blochem. Biophys. Res. Commun., 78, 1227-233 (1977). 3β-Hydroxy-25,26,26,26,27,27,27-heptafluoro-5α-cholest-8(14)-en-15-one was administered at levels of 0.025%, 0.05%, 0.075, and 0.10% (by weight) in basal diet. Control rats received basal diet containing no added sterol.
Serum cholesterol was measured by two methods. Day 0 levels were determined using a commercial assay kit ("Single Vial"; Boehringer Mannheim Diagnostics, catalog no. 236691). This methodology could not be applied to the determination of serum cholesterol in serum samples of rats treated with 3β-hydroxy-25,26,26,26,27,27,27-heptafluoro-5α-cholest-8(14)-en-15-one due to the presence of another sterol which also acted as a substrate for cholesterol oxidase. Accordingly, cholesterol levels in serum were determined by gas chromatography (GC). Routine capillary GC analyses of sterols in serum were made on a 0.1 μm Rtx 1701 column (15 m×0.25 mm ID; 14% cyanopropylphenyl, 86% methyl polysiloxane; Restek Corp., Bellefonte, Pa.). Stigmasterol was used as an internal standard. In addition, recovery of sterol after saponification and extraction was monitored through the use of an internal standard of [7(n)-^3 H]cholesteryl oleate. Routine saponification of sample (100 μl) involved treatment with 10% KOH in ethanol (500 μl) followed by extraction with hexane (3×1.5 ml). After evaporation to dryness under nitrogen, the samples were treated with BSTFA-pyridine (1:1, 200 μl) for 1 hour at room temperature under nitrogen. After evaporation to dryness under nitrogen, the silylated material was dissolved in hexane (500 μl) and aliquots (1 μl) were subjected to GC analysis.

SMILES	HMG-CoA reductase activity (% of control activity) ([1]; sterol concentration 0.1 μM)	HMG-CoA reductase activity (% of control activity) ([1]; sterol concentration 0.25 μM)	HMG-CoA reductase activity (% of control activity) ([1]; sterol concentration 0.5 μM)	HMG-CoA reductase activity (% of control activity) ([1]; sterol concentration 1.0 μM)	HMG-CoA reductase activity (% of control activity) ([1]; sterol concentration 2.5 μM)	Serum Sterols: Cholesterol ([2]; 0.025% in diet, day 5, control 2.60 ± 0.12)	Serum Sterols: Cholesterol ([2]; 0.025% in diet, day 9, control 2.62 ± 0.06)	Serum Sterols: Cholesterol ([2]; 0.050% in diet, day 5, control 2.60 ± 0.12)	Serum Sterols: Cholesterol ([2]; 0.050% in diet, day 9, control 2.62 ± 0.06)	Serum Sterols: Cholesterol ([2]; 0.075% in diet, day 5, control 2.60 ± 0.12)	Serum Sterols: Cholesterol ([2]; 0.075% in diet, day 9, control 2.62 ± 0.06)	Serum Sterols: Cholesterol ([2]; 0.100% in diet, day 5, control 2.60 ± 0.12)	Serum Sterols: Cholesterol ([2]; 0.100% in diet, day 9, control 2.62 ± 0.06)
C[C@H](CCC(=O)O)[C@H]1CC(=O)C2=C3CC[C@H]4C[C@@H](O)CC[C@]4(C)[C@H]3CC[C@@]21C [I, 3β-hydroxy-15-keto-5α-chol-8(14)-en-24-oic acid]	88.5 % of control activity	77.3 % of control activity	69.9 % of control activity	65.0 % of control activity	45.6 % of control activity	–	–	–	–	–	–	–	–
CC(C)=CCC[C@@H](C)[C@H]1CC(=O)C2=C3CC[C@H]4C[C@@H](O)CC[C@]4(C)[C@H]3CC[C@@]21C [II, 3β-hydroxy-5α-cholesta-8(14),24-dien-15-one]	60.5 % of control activity	67.0 % of control activity	51.1 % of control activity	40.0 % of control activity	35.2 % of control activity	–	–	–	–	–	–	–	–
C[C@H](CCCC(C)(C)O)[C@H]1CC(=O)C2=C3CC[C@H]4C[C@@H](O)CC[C@]4(C)[C@H]3CC[C@@]21C [III, 3β,25-dihydroxy-5α-cholest-8(14)-en-15-one]	66.4 % of control activity	56.2 % of control activity	50.2 % of control activity	34.8 % of control activity	23.7 % of control activity	–	–	–	–	–	–	–	–
CC(C)C(O)CC[C@@H](C)[C@H]1CC(=O)C2=C3CC[C@H]4C[C@@H](O)CC[C@]4(C)[C@H]3CC[C@@]21C (stereo partly drawn) [IV, 3β,24-dihydroxy-5α-cholest-8(14)-en-15-one]	63.4 % of control activity	33.5 % of control activity	32.2 % of control activity	34.2 % of control activity	21.5 % of control activity	–	–	–	–	–	–	–	–
C[C@H](CCCN(C)C)[C@H]1CC(=O)C2=C3CC[C@H]4C[C@@H](O)CC[C@]4(C)[C@H]3CC[C@@]21C [V, 3β-hydroxy-24-dimethylamino-5α-chol-8(14)-en-15-one]	87.1 % of control activity	85.4 % of control activity	73.3 % of control activity	53.5 % of control activity	35.0 % of control activity	–	–	–	–	–	–	–	–
C[C@H](CCCC(F)(C(F)(F)F)C(F)(F)F)[C@H]1CC(=O)C2=C3CC[C@H]4C[C@@H](O)CC[C@]4(C)[C@H]3CC[C@@]21C [VI, 3β-hydroxy-25,26,26,26,27,27,27-heptafluoro-5α-cholest-8(14)-en-15-one]	68.3 % of control activity	49.1 % of control activity	35.6 % of control activity	29.0 % of control activity	22.2 % of control activity	2.02 ± 0.12 mM	2.10 ± 0.10 mM	2.06 ± 0.07 mM	1.83 ± 0.07 mM	1.76 ± 0.05 mM	1.76 ± 0.12 mM	1.97 ± 0.09 mM	1.90 ± 0.10 mM
